In patent US20260324639A1, “MICROBIOCIDAL PYRAZOLE DERIVATIVES” (SYNGENTA CROP PROTECTION AG, priority 2022, published 2026):

Columns and labels:
[1] = tested on: Alternaria solani; experiment: Alternaria solani/tomato/leaf disc (early blight); format: in vivo; settings: 200 ppm; tomato leaf disks cv. Baby; inoculated 2 days after application; assessed 5-7 days after application
Protocol: Tomato leaf disks cv. Baby are placed on agar in multiwell plates (24-well format) and sprayed with the formulated test compound diluted in water. The leaf disks are inoculated with a spore suspension of the fungus 2 days after application. The inoculated leaf disks are incubated at 23° C./21° C. (day/night) and 80% rh under a light regime of 12/12 h (light/dark) in a climate cabinet and the activity of a compound is assessed as percent disease control compared to untreated when an appropriate level of disease damage appears on untreated check disk leaf disks (5-7 days after application).

[2] = tested on: Botryotinia fuckeliana; experiment: Botryotinia fuckeliana (Botrytis cinerea)/liquid culture (gray mould); format: cell-based; settings: liquid culture, Vogels broth, 24° C., growth inhibition photometric 3-4 days after application, read-out: control of Botryotinia fuckeliana compared to untreated control
Protocol: (§1) Conidia of the fungus from cryogenic storage are directly mixed into nutrient broth (Vogels broth). After placing a (DMSO) solution of test compound into a microtiter plate (96-well format), the nutrient broth containing the fungal spores is added. The test plates are incubated at 24° C. and the inhibition of growth is determined photometrically 3-4 days after application.

[3] = tested on: Glomerella lagenarium; experiment: Glomerella lagenarium (Colletotrichum lagenarium)/liquid culture (anthracnose); format: cell-based; settings: Colletotrichum orbiculare, liquid culture, PDB, 24° C., growth inhibition photometric 3-4 days after application, read-out: control of Glomerella lagenarium compared to untreated control
Protocol: as §1, with “(PDB potato dextrose” for “(Vogels”, “measured” for “determined”

[4] = tested on: Blumeria graminis f. sp. tritici; experiment: Blumeria graminis f. sp. tritici/wheat/leaf disc preventative (powdery mildew on wheat); format: in vivo; settings: 200 ppm, wheat leaf segments cv. Kanzler, inoculated 1 day after application, assessed 6-8 days after application
Protocol: Wheat leaf segments cv. Kanzler are placed on agar in a multiwell plate (24-well format) and sprayed with the formulated test compound diluted in water. The leaf disks are inoculated by shaking powdery mildew infected plants above the test plates 1 day after application. The inoculated leaf disks are incubated at 20° C. and 60% rh under a light regime of 24 h darkness followed by 12 h light/12 h darkness in a climate chamber and the activity of a compound is assessed as percent disease control compared to untreated when an appropriate level of disease damage appears on untreated check leaf segments (6-8 days after application).

[5] = tested on: Fusarium culmorum; experiment: microbe, parasite or virus in culture; format: cell-based; settings: read-out: control of Fusarium culmorum compared to untreated control
Protocol: as §1, with “(PDB potato dextrose” for “(Vogels”

[6] = tested on: Phaeosphaeria nodorum; experiment: Phaeosphaeria nodorum (Septoria nodorum)/wheat/leaf disc preventative (glume blotch); format: in vivo; settings: 200 ppm, wheat leaf segments cv. Kanzler, inoculated 2 days after application, assessed 5-7 days after application
Protocol: (§2) Wheat leaf segments cv. Kanzler are placed on agar in a multiwell plate (24-well format) and sprayed with the formulated test compound diluted in water. The leaf disks are inoculated with a spore suspension of the fungus 2 days after application. The inoculated test leaf disks are incubated at 20° C. and 75% rh under a light regime of 12 h light/12 h darkness in a climate cabinet and the activity of a compound is assessed as percent disease control compared to untreated when an appropriate level of disease damage appears in untreated check leaf disks (5-7 days after application).

[7] = tested on: Monographella nivalis; experiment: Monographella nivalis (Microdochium nivale)/liquid culture (foot rot cereals); format: cell-based; settings: liquid culture, PDB, 24° C., growth inhibition photometric 4-5 days after application, read-out: control of Monographella nivalis compared to untreated control
Protocol: as §1, with “(PDB potato dextrose” for “(Vogels”, “4-5” for “3-4”

[8] = tested on: Mycosphaerella arachidis; experiment: Mycosphaerella arachidis (Cercospora arachidicola)/liquid culture (early leaf spot); format: cell-based; settings: liquid culture, PDB, 24° C., growth inhibition photometric 4-5 days after application, read-out: control of Mycosphaerella arachidis compared to untreated control
Protocol: as §1, with “(PDB potato dextrose” for “(Vogels”, “4-5” for “3-4”

[9] = tested on: Pyrenophora teres; experiment: Pyrenophora teres/barley/leaf disc preventative (net blotch); format: in vivo; settings: 200 ppm, barley leaf segments cv. Hasso, inoculated 2 days after application, assessed 5-7 days after application
Protocol: as §2, with “Barley” for “Wheat”, “Hasso” for “Kanzler”, “segments” for “disks”, “inoculated” for “inoculated test”, “65%” for “75%”, “as” for “as percent”

[10] = tested on: Mycosphaerella graminicola; experiment: Mycosphaerella graminicola (Septoria tritici)/liquid culture (Septoria blotch); format: cell-based; settings: Zymoseptoria tritici, liquid culture, PDB, 24° C., growth inhibition photometric 4-5 days after application, read-out: control of Mycosphaerella graminicola compared to untreated control
Protocol: as §1, with “(PDB potato dextrose” for “(Vogels”, “4-5” for “3-4”

[11] = tested on: Sclerotinia sclerotiorum; experiment: Sclerotinia sclerotiorum/liquid culture (cottony rot); format: cell-based; settings: liquid culture (mycelia fragments), PDB, 24° C., growth inhibition photometric 3-4 days after application, read-out: control of Sclerotinia sclerotiorum compared to untreated control
Protocol: as §1, with “Mycelia fragments of a newly grown liquid culture” for “Conidia”, “fungus” for “fungus from cryogenic storage”, “(PDB potato dextrose” for “(Vogels”, “format)” for “format),”, “material” for “spores”

[12] = tested on: Puccinia recondita f. sp. tritici; experiment: Puccinia recondita f. sp. tritici/wheat/leaf disc preventative (brown rust); format: in vivo; settings: 200 ppm, inoculated 1 day after application, wheat leaf segments cv. Kanzler, assessed 7-9 days after application
Protocol: Wheat leaf segments cv. Kanzler are placed on agar in multiwell plates (24-well format) and sprayed with the formulated test compound diluted in water. The leaf disks are inoculated with a spore suspension of the fungus 1 day after application. The inoculated leaf segments are incubated at 19° C. and 75% rh under a light regime of 12 h light/12 h darkness in a climate cabinet and the activity of a compound is assessed as percent disease control compared to untreated when an appropriate level of disease damage appears in untreated check leaf segments (7-9 days after application).

Row | SMILES | control of Alternaria solani compared to untreated control [1] | inhibition of growth at 20 ppm [2] | inhibition of growth at 20 ppm [3] | control of Blumeria graminis f. sp. tritici compared to untreated control [4] | inhibition of growth at 20 ppm [5] | control of Phaeosphaeria nodorum compared to untreated control [6] | inhibition of growth at 20 ppm [7] | inhibition of growth at 20 ppm [8] | control of Pyrenophora teres compared to untreated control [9] | inhibition of growth at 20 ppm [10] | inhibition of growth at 20 ppm [11] | control of Puccinia recondita f. sp. tritici compared to untreated control [12]
1 | Cc1c([C@H]2CN(C(=O)c3cn(-c4ncc(F)cc4F)nn3)[C@@H](C)c3ccccc32)cnn1C [Compound P-43, [1-(3,5-difluoro-2-pyridyl)triazol-4-yl]-[(1S,4S)-4-(1,5-dimethylpyrazol-4-yl)-1-methyl-3,4-dihydro-1H-isoquinolin-2-yl]methanone] | at least 80% | ≥ 80% | ≥ 80% | at least 80% | ≥ 80% | at least 80% | ≥ 80% | ≥ 80% | at least 80% | ≥ 80% |  | 
2 | C[C@H]1c2ccccc2[C@@H](c2cnn(C)c2Cl)CN1C(=O)c1cn(-c2ncc(F)cc2F)nn1 (racemic) [Compound P-53, [1-(3,5-difluoro-2-pyridyl)triazol-4-yl]-[rac-(1S,4S)-4-(5-chloro-1-methyl-pyrazol-4-yl)-1-methyl-3,4-dihydro-1H-isoquinolin-2-yl]methanone] | at least 80% | ≥ 80% | ≥ 80% | at least 80% | ≥ 80% | at least 80% | ≥ 80% | ≥ 80% | at least 80% | ≥ 80% |  | 
3 | C[C@H]1c2ccccc2[C@@H](c2cnn(C)c2Cl)CN1C(=O)c1cn(-c2ccc(F)cc2F)nn1 [Compound P-48, [(1S,4S)-4-(5-chloro-1-methyl-pyrazol-4-yl)-1-methyl-3,4-dihydro-1H-isoquinolin-2-yl]-[1-(2,4-difluorophenyl)triazol-4-yl]methanone] | at least 80% | ≥ 80% | ≥ 80% | at least 80% | ≥ 80% | at least 80% | ≥ 80% | ≥ 80% | at least 80% | ≥ 80% | ≥ 80% | 
4 | C[C@H]1c2ccccc2[C@@H](c2cnn(C)c2)CN1C(=O)c1cn(-c2ncc(F)cc2F)nn1 [Compound P-51, [1-(3,5-difluoro-2-pyridyl)triazol-4-yl]-[(1S,4S)-1-methyl-4-(1-methylpyrazol-4-yl)-3,4-dihydro-1H-isoquinolin-2-yl]methanone] | at least 80% | ≥ 80% | ≥ 80% | at least 80% |  | at least 80% | ≥ 80% | ≥ 80% | at least 80% | ≥ 80% |  | 
5 | COc1ccc2c(c1)[C@@H](c1cnn(C)c1)CN(C(=O)c1nnn(-c3ccccc3)n1)[C@H]2C (single isomer, unassigned) [Compound P-37] |  | ≥ 80% |  | at least 80% |  | at least 80% | ≥ 80% | ≥ 80% | at least 80% | ≥ 80% |  | at least 80%
6 | Cc1c(C2CN(C(=O)c3cn(-c4ccc(F)cc4F)nn3)Cc3ccccc32)cnn1C (stereo not shown) [Compound P-56, [1-(2,4-difluorophenyl)triazol-4-yl]-[4-(1,5-dimethylpyrazol-4-yl)-3,4-dihydro-1H-isoquinolin-2-yl]methanone] | at least 80% | ≥ 80% | ≥ 80% | at least 80% |  | at least 80% | ≥ 80% | ≥ 80% | at least 80% | ≥ 80% |  | 
7 | C[C@H]1c2ccccc2[C@@H](c2cnn(C)c2Cl)CN1C(=O)c1nnn(-c2ccc(F)cc2F)n1 [Compound P-49, [(1S,4S)-4-(5-chloro-1-methyl-pyrazol-4-yl)-1-methyl-3,4-dihydro-1H-isoquinolin-2-yl]-[2-(2,4-difluorophenyl)tetrazol-5-yl]methanone] | at least 80% | ≥ 80% | ≥ 80% | at least 80% |  | at least 80% | ≥ 80% | ≥ 80% | at least 80% | ≥ 80% |  | at least 80%
